We go through 14 compounds from patent US20040024024A1, “Aromatic sulfone hydroxamates and their use as protease inhibitors” (priority 2001, published 2004).

In one series the target is T1, Human recombinant MMP-1 (Homo sapiens, UniProt P03956).
T1 construct: made in house; host or cells: MMP-1-transfected HT-1080 cells (spent media)
T1 sequence (P03956 100-469): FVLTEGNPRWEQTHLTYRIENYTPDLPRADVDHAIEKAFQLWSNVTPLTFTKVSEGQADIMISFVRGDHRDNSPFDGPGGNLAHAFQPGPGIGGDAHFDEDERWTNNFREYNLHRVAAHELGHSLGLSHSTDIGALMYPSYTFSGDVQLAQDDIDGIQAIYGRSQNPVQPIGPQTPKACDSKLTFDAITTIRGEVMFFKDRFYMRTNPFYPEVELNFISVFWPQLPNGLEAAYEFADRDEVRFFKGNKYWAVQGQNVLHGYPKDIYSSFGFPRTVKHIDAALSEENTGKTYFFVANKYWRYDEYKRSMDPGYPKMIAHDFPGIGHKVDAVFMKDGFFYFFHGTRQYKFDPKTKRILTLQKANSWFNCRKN
Kind of series: In vitro MMP inhibition, IC50 determination (fluorogenic substrate I). It is filed as biochemical. The conditions noted are these: value outside parentheses. The procedure, abridged:
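APMA- or trypsin-activated enzyme, purified from spent media of transfected HT-1080 cells, incubated at room temperature with 4 μM MCA-Pro-Leu-Gly-Leu-Dpa-Ala-Arg-NH2 and graded inhibitor in Tris buffer pH 7.5 (10 mM CaCl2, 0.05% Brij). Cleavage read by fluorescence (ex 328/em 415 nm); IC50 from fluorescence reduction versus inhibitor concentration.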

For another series, the target named is T2, Human recombinant MMP-2 (Homo sapiens, UniProt P08253).
T2 construct: made in house; host or cells: MMP-2-transfected p2AHT2 cells
T2 sequence (P08253 110-660): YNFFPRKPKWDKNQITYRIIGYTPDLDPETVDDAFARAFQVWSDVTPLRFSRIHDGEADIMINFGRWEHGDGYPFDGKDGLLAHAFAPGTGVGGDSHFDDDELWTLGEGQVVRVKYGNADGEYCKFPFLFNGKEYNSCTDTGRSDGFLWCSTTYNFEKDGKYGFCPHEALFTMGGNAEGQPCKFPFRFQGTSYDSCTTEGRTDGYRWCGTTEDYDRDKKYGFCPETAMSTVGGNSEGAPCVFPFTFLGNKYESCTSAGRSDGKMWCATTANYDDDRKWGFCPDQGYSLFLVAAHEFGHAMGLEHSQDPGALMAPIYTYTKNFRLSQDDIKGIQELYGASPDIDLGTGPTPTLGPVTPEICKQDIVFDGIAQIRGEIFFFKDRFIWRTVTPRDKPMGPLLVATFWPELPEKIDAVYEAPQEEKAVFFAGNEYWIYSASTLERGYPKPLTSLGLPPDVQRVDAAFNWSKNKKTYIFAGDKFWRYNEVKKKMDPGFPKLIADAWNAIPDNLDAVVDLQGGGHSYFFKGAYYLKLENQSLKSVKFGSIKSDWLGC
Described as above. It is filed as biochemical. The conditions noted are these: value outside parentheses. The procedure, abridged:
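APMA- or trypsin-activated recombinant MMP-2 was incubated at room temperature with serial inhibitor dilutions in Tris buffer pH 7.5 (100 mM NaCl, 10 mM CaCl2, 0.05% Brij), with DMSO from 1% stocks, and 4 μM substrate I. Cleavage was read by fluorescence at 328/415 nm; IC50 was taken from the loss of fluorescence versus inhibitor concentration.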

The target of a further series is T3, Human recombinant MMP-9 (Homo sapiens, UniProt P14780).
T3 construct: made in house; host or cells: MMP-9-transfected HT1080 cells (spent media)
T3 sequence (P14780 107-707 limits assumed): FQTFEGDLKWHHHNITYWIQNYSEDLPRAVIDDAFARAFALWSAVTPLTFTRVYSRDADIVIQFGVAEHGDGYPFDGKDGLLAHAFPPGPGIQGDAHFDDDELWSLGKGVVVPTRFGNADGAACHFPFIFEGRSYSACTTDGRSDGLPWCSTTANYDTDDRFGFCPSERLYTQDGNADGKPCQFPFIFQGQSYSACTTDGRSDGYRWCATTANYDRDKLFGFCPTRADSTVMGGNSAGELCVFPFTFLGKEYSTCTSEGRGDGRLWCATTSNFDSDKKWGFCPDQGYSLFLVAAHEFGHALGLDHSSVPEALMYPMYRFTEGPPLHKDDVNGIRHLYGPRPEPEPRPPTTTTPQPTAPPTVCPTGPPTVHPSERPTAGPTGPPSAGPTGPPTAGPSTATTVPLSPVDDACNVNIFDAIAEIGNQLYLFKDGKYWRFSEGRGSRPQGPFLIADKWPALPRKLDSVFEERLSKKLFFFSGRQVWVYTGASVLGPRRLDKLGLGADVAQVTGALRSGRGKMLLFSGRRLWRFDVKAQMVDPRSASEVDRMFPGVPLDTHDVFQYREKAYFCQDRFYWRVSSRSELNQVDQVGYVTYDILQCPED
The series is described as above. It is filed as biochemical. The conditions noted are these: value outside parentheses. The procedure, abridged:
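MMP-9 proenzyme purified from transfected HT1080 cell media, activated with APMA or trypsin. Compound dilutions in pH 7.5 Tris/NaCl/CaCl2 buffer with 0.05% polyoxyethylene 23 lauryl ether, incubated at room temperature with 4 μM MCA/Dpa substrate I. IC50 from fluorescence loss (ex 328, em 415 nm) versus inhibitor concentration.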

A further series addresses T4, Human recombinant MMP-13 (Homo sapiens, UniProt P45452).
T4 construct: made in house; host or cells: baculovirus / insect cells
The series is described as above. The conditions noted are these: value outside parentheses. In kind it is biochemical. The procedure, abridged:
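Fluorescence at 415 nm (excitation 328 nm) reports Gly-Leu cleavage of 4 μM quenched methoxycoumarin peptide substrate I. Human recombinant MMP-13, activated by trypsin or APMA, was incubated at room temperature with varied inhibitor concentrations in pH 7.5 Tris/NaCl/CaCl2 buffer; IC50 derived from reduced fluorescence.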

Another series addresses T5, Human recombinant MMP-14 (Homo sapiens, UniProt P50281).
T5 construct: The catalytic domain enzyme was expressed in E. coli inclusion bodies, solubilized in urea; made in house
The series is described as above. It is filed as biochemical. The conditions noted are these: value outside parentheses. The procedure, abridged:
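Catalytic-domain MMP-14, expressed in E. coli and refolded, activated with APMA or trypsin; compounds incubated at room temperature with 4 μM fluorogenic substrate I (MCA-PLGL-Dpa-AR-NH2) in Tris/NaCl/CaCl2 buffer, pH 7.5. Fluorescence at ex 328/em 415 nm; IC50 from loss of fluorescence versus inhibitor concentration.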

For series [1], the system named is solid tumor cancers (colorectal, pancreatic, ovarian, and prostate). The conditions noted are these: cited from earlier work.

Consider `O=C(NO)C1(S(=O)(=O)c2ccc(OCCCn3nnc(-c4ccc(C(F)(F)F)cc4)n3)cc2)CCN(CC(F)(F)F)CC1` [Example 657], for which the IC50 on Human recombinant MMP-1 was more than 10000 nM; at Human recombinant MMP-2 it was 316 nM; at Human recombinant MMP-9, 380 nM; at Human recombinant MMP-13, 6030 nM; on Human recombinant MMP-14, 3460 nM.

With `CC(=O)c1cccc(OCCOc2ccc(S(=O)(=O)C3(C(=O)NO)CCOCC3)cc2)c1` [Example 658], the IC50 is more than 10000 nM at Human recombinant MMP-1; 156 nM at Human recombinant MMP-2; 891 nM at Human recombinant MMP-9; 3.27 nM at Human recombinant MMP-13; more than 10000 nM on Human recombinant MMP-14.

For `O=C(NO)C1(S(=O)(=O)c2ccc(OCCOCc3cccc(OC(F)(F)F)c3)cc2)CCOCC1` [Example 660], the half-maximal inhibitory concentration (IC50) on Human recombinant MMP-1 amounted to 7350 nM; on Human recombinant MMP-2, 18.7 nM; at Human recombinant MMP-9, 83.1 nM; on Human recombinant MMP-13, 1.41 nM; on Human recombinant MMP-14 it was 3490 nM.

As to `O=C(NO)C1(S(=O)(=O)c2ccc(OCCOCC3CCCCO3)cc2)CCOCC1` (stereo not shown) [Example 661], the IC50 on Human recombinant MMP-1 was more than 10000 nM; at Human recombinant MMP-2, 78.2 nM; at Human recombinant MMP-9 it was 616 nM; on Human recombinant MMP-13, 61 nM; at Human recombinant MMP-14 it was more than 10000 nM.

Turning to `O=C(NO)C1(S(=O)(=O)c2ccc(OCCOCc3cccc([N+](=O)[O-])c3)cc2)CCOCC1` [Example 662], the IC50 at Human recombinant MMP-1 was 2310 nM; at Human recombinant MMP-2 it was 7.13 nM; on Human recombinant MMP-9, 44.3 nM; at Human recombinant MMP-13 it was 0.9 nM; on Human recombinant MMP-14, 1670 nM.

Take `O=C(NO)C1(S(=O)(=O)c2ccc(OCCOCc3cccc(F)c3)cc2)CCOCC1` [Example 663]: the IC50 at Human recombinant MMP-1 was more than 10000 nM; on Human recombinant MMP-2, 25.2 nM; on Human recombinant MMP-9, 49.9 nM; at Human recombinant MMP-13, 3.61 nM; on Human recombinant MMP-14 it was 3320 nM.

`O=C(NO)C1(S(=O)(=O)c2ccc(OCC3Cc4cc(Oc5ccccc5)ccc4O3)cc2)CCOCC1` (stereo not shown) [Example 664]: the half-maximal inhibitory concentration (IC50) is more than 10000 nM at Human recombinant MMP-1; 19.8 nM at Human recombinant MMP-2; 430 nM on Human recombinant MMP-9; 1.02 nM on Human recombinant MMP-13; 2650 nM at Human recombinant MMP-14.

`O=C(NO)C1(S(=O)(=O)c2ccc(OCCOc3ccc4c(c3)OCO4)cc2)CCOCC1` [Example 665]: the IC50 is more than 10000 nM at Human recombinant MMP-1; 11.6 nM on Human recombinant MMP-2; 44.3 nM on Human recombinant MMP-9; 2.39 nM on Human recombinant MMP-13; 2130 nM on Human recombinant MMP-14.

Turning to `CN(C)C(=O)c1cccc(OCCOc2ccc(S(=O)(=O)C3(C(=O)NO)CCOCC3)cc2)c1` [Example 666], the IC50 on Human recombinant MMP-1 was more than 10000 nM; on Human recombinant MMP-2 it was 1.52 nM; on Human recombinant MMP-9, 4450 nM; at Human recombinant MMP-13 it was 17.2 nM; on Human recombinant MMP-14, more than 10000 nM.

As to `O=C(NO)C1(S(=O)(=O)c2ccc(OCCOc3ccccc3)cc2)CCOCC1` [Example 667], the IC50 on Human recombinant MMP-1 is more than 10000 nM; at Human recombinant MMP-2, 27.3 nM; on Human recombinant MMP-9, 34.2 nM; at Human recombinant MMP-13, 9.42 nM; at Human recombinant MMP-14 it was 2510 nM.

Regarding `COC(=O)c1cccc(OCCOc2ccc(S(=O)(=O)C3(C(=O)NO)CCOCC3)cc2)c1` [Example 668], the 50% inhibitory concentration (IC50) came out at 7660 nM at Human recombinant MMP-1; 101 nM on Human recombinant MMP-2; 288 nM on Human recombinant MMP-9; 1.53 nM at Human recombinant MMP-13; 2110 nM on Human recombinant MMP-14.

On to `O=C(NO)C1(S(=O)(=O)c2ccc(OCCOc3cccc(F)c3)cc2)CCOCC1` [Example 669], for which the IC50 is more than 10000 nM at Human recombinant MMP-1; 19.3 nM on Human recombinant MMP-2; 39.1 nM on Human recombinant MMP-9; 7.24 nM on Human recombinant MMP-13; 2670 nM at Human recombinant MMP-14.

Take `CC(=O)Nc1cccc(OCCOc2ccc(S(=O)(=O)C3(C(=O)NO)CCOCC3)cc2)c1` [Example 670]: the IC50 at Human recombinant MMP-1 is more than 10000 nM; on Human recombinant MMP-2, 163 nM; on Human recombinant MMP-9, 183 nM; at Human recombinant MMP-13 it was 14 nM; on Human recombinant MMP-14, 2370 nM.

As for `CNC(=O)[C@@H](NC(=O)[C@H](CC(C)C)[C@H](O)C(=O)NO)C(C)(C)C` [Marimastat], the “most common drug-related toxicity” value in series [1] (clinical trials, patients) is “musculoskeletal pain and stiffness”. For the same compound, in series [1] (patients with advanced, rapidly progressive, treatment-refractory solid tumor cancers), the “effect on cancer-specific antigens used as surrogate markers for biological activity” value is “dose-related reduction in the rise of cancer-specific antigens”.
